Measurements published in patent US20240252488A1 (KOREA RESEARCH INSTITUTE OF CHEMICAL TECHNOLOGY, priority 2020, published 2024).

How the values were obtained:
[1] = molecular target: T1, MLKL (Homo sapiens, UniProt Q8NB16); experiment: Measurement of binding affinity with MLKL receptor (competitive binding assay, Kd); set-up: made in house; host or cells: HEK 293 cell line (T7 phage in E. coli BL21-derived host is also described)
T1 sequence (Q8NB16 1-471): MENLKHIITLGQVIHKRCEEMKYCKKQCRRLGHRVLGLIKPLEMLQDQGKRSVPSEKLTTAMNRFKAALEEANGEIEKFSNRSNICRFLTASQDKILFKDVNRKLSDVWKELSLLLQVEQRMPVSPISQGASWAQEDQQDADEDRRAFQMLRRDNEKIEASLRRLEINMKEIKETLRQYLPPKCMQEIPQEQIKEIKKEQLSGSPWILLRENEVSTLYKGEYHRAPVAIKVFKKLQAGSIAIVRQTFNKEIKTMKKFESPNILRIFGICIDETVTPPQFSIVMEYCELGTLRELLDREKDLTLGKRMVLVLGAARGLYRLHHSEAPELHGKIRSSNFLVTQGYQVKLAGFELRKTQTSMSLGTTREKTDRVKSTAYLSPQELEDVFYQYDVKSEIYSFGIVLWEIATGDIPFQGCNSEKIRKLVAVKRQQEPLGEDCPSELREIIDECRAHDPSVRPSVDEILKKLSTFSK
Method in brief: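 qPCR of MLKL eluted from liganded beads served as the read-out, from which Kd was derived. The protein was made in HEK 293 cells with a DNA tag, and test compounds competed with the bead-bound ligand at 0.9% final DMSO.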

[2] = test system: FADD−/− Jurkat cells; experiment: Necroptosis inhibition assay, TNF-α-induced necroptosis (CellTiter-Glo 2.0); format: cell-based, human; conditions: TNF-α 15 ng/mL; for Necroptosis inhibition assay (Rescue %) 1 μM: compound 1 μM; for Necroptosis inhibition assay (Rescue %) 10 μM: compound 10 μM
Method in brief: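 FADD−/− Jurkat cells preincubated 30 min at room temperature with compound at 0.1, 1 and 10 μM final, then stimulated with TNF-α (15 ng/mL final) for 20–24 h at 37 °C, 5% CO2. Viability read as ATP luminescence; cytotoxicity and necroptosis inhibition rate calculated from luminescence values.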

[3] = molecular target: T1, MLKL; experiment: MLKL degradation assay in HepG2 cell line (western blot); format: cell-based; set-up: endogenous in cells; host or cells: HepG2 or HaCaT; conditions: cell line not given; for Degradation assay (Degradation %) 1 μM: compound 1 μM; for Degradation assay (Degradation %) 10 μM: compound 10 μM
Method in brief: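 HepG2 cells were treated 20-24 h at 37 °C with compound at 1 or 10 μM final. RIPA lysates were normalized by BCA, and 10-15 μg protein per lane was resolved by SDS-PAGE. MLKL was detected by western blot with chemiluminescence.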

In the case of `Nc1ncc(-c2cnn(C3CCN(C(=O)CCC4CCN(C(=O)COc5ccc6c(c5)C(=O)N(C5CCC(=O)NC5=O)C6=O)CC4)CC3)c2)nc1C(=O)O[C@@H](C(=O)Nc1ccc(F)cc1)c1ccccc1` (stereo partly drawn) [TDH-416, (R)-2-((4-fluorophenyl)amino)-2-oxo-1-phenylethyl 3-amino-6-(1-(1-(3-(1-(2-((2-(2,6-dioxopiperidin-3-yl)-1,3-dioxoisoindolin-5-yl)oxy)acetyl)piperidin-4-yl)propanoyl)piperidin-4-yl)-1H-pyrazol-4-yl)pyrazine-2-carboxylate], the Kd [1] is reported as 2.4 nM, the “Necroptosis inhibition assay (Rescue %) 1 μM” value ([2]; FADD−/− Jurkat cells) is reported as 52.88% and the “Necroptosis inhibition assay (Rescue %) 10 μM” value ([2]; FADD−/− Jurkat cells) is reported as 43.06%. The “Degradation assay (Degradation %) 1 μM” value [3] was 93.24% and the “Degradation assay (Degradation %) 10 μM” value [3] was 93.04%.

With `Nc1ncc(-c2cnn(C3CCN(CC4CCN(C(=O)CC5CCN(c6ccc7c(c6)C(=O)N(C6CCC(=O)NC6=O)C7=O)CC5)CC4)CC3)c2)nc1C(=O)O[C@@H](C(=O)Nc1ccc(F)cc1)c1ccccc1` (stereo partly drawn) [TDH-205, (R)-2-((4-fluorophenyl)amino)-2-oxo-1-phenylethyl 3-amino-6-(1-(1-((1-(2-(1-(2-(2,6-dioxopiperidin-3-yl)-1,3-dioxoisoindolin-5-yl)piperidin-4-yl)acetyl)piperidin-4-yl)methyl)piperidin-4-yl)-1H-pyrazol-4-yl)pyrazine-2-carboxylate] the Kd [1] was 6.7 nM, the “Necroptosis inhibition assay (Rescue %) 1 μM” value [2] was 59.88% and the “Necroptosis inhibition assay (Rescue %) 10 μM” value [2] was 41.34%. For the same compound, the “Degradation assay (Degradation %) 1 μM” value [3] was 57.56% and the “Degradation assay (Degradation %) 10 μM” value [3] was 36.05%.

For `Nc1ncc(-c2cnn(C3CCN(C[C@H]4CC[C@H](CNC(=O)Cc5cccc(NC6=CC(=O)N(C7CCC(=O)NC7=O)C6=O)c5)CC4)CC3)c2)nc1C(=O)O[C@@H](C(=O)Nc1ccc(F)cc1)c1ccccc1` (stereo partly drawn) [TDH-498, (R)-2-((4-fluorophenyl)amino)-2-oxo-1-phenylethyl 3-amino-6-(1-(1-(((1r,4r)-4-((2-(3-((1-(2,6-dioxopiperidin-3-yl)-2,5-dioxo-2,5-dihydro-1H-pyrrol-3-yl)amino)phenyl)acetamido)methyl)cyclohexyl)methyl)piperidin-4-yl)-1H-pyrazol-4-yl)pyrazine-2-carboxylate], the Kd [1] was 3.7 nM, the “Necroptosis inhibition assay (Rescue %) 1 μM” value ([2]; FADD−/− Jurkat cells) was 23.9% and the “Necroptosis inhibition assay (Rescue %) 10 μM” value ([2]; FADD−/− Jurkat cells) was 16.6%. The “Degradation assay (Degradation %) 1 μM” value [3] was 86.68% and the “Degradation assay (Degradation %) 10 μM” value [3] was 89.27%.

With `Nc1ncc(-c2cnn(C3CCN(C(=O)C4CCN(C(=O)CNc5ccc6nnn(C7CCC(=O)NC7=O)c(=O)c6c5)CC4)CC3)c2)nc1C(=O)O[C@@H](C(=O)Nc1ccc(F)cc1)c1ccccc1` (stereo partly drawn) [TDH-408, (R)-2-((4-fluorophenyl)amino)-2-oxo-1-phenylethyl 3-amino-6-(1-(1-(1-((3-(2,6-dioxopiperidin-3-yl)-4-oxo-3,4-dihydrobenzo[d][1,2,3]triazin-6-yl)glycyl)piperidine-4-carbonyl)piperidin-4-yl)-1H-pyrazol-4-yl)pyrazine-2-carboxylate] the Kd [1] was 0.57 nM, the “Necroptosis inhibition assay (Rescue %) 1 μM” value ([2]; FADD−/− Jurkat cells) was 26.68% and the “Necroptosis inhibition assay (Rescue %) 10 μM” value ([2]; FADD−/− Jurkat cells) was 19.89%. The “Degradation assay (Degradation %) 1 μM” value [3] was 77.02% and the “Degradation assay (Degradation %) 10 μM” value [3] was 44.73%.

With `Nc1ncc(-c2cnn([C@@H]3CCN(CC4CCN(C(=O)COc5cccc6c5C(=O)N(C5CCC(=O)NC5=O)C6=O)CC4)C3)c2)nc1C(=O)OC(C(=O)Nc1ccc(F)cc1)c1ccccc1` (stereo partly drawn) [TDH-287, 2-((4-fluorophenyl)amino)-2-oxo-1-phenylethyl 3-amino-6-(1-((3R)-1-((1-(2-((2-(2,6-dioxopiperidin-3-yl)-1,3-dioxoisoindolin-4-yl)oxy)acetyl)piperidin-4-yl)methyl)pyrrolidin-3-yl)-1H-pyrazol-4-yl)pyrazine-2-carboxylate] the Kd [1] was 3.7 nM, the “Necroptosis inhibition assay (Rescue %) 1 μM” value [2] was 71.05% and the “Necroptosis inhibition assay (Rescue %) 10 μM” value [2] was 72.7%. For the same compound, the “Degradation assay (Degradation %) 1 μM” value [3] was 75.04% and the “Degradation assay (Degradation %) 10 μM” value [3] was 65.94%.

In the case of `Nc1ncc(-c2cnn(C3CCN(CCOCCOCCNC(=O)C4CN(c5cccc6c5C(=O)N(C5CCC(=O)NC5=O)C6=O)C4)CC3)c2)nc1C(=O)O[C@@H](C(=O)Nc1ccc(F)cc1)c1ccccc1` (stereo partly drawn) [TDH-115, (R)-2-((4-fluorophenyl)amino)-2-oxo-1-phenylethyl 3-amino-6-(1-(1-(2-(2-(2-(1-(2-(2,6-dioxopiperidin-3-yl)-1,3-dioxoisoindolin-4-yl)azetidine-3-carboxamido)ethoxy)ethoxy)ethyl)piperidin-4-yl)-1H-pyrazol-4-yl)pyrazine-2-carboxylate], the Kd [1] is reported as 6.3 nM, the “Necroptosis inhibition assay (Rescue %) 1 μM” value [2] is reported as 12.42% and the “Necroptosis inhibition assay (Rescue %) 10 μM” value [2] is reported as 3.59%. For the same compound, the “Degradation assay (Degradation %) 1 μM” value [3] was 10.31% and the “Degradation assay (Degradation %) 10 μM” value [3] was 24.21%.

For `Nc1ncc(-c2cnn(C3CCN(CCCC4CCN(C(=O)CNc5ccc6c(c5)C(=O)N(C5CCC(=O)NC5=O)C6=O)CC4)CC3)c2)nc1C(=O)O[C@@H](C(=O)Nc1ccc(F)cc1)c1ccccc1` (stereo partly drawn) [TDH-483, (R)-2-((4-fluorophenyl)amino)-2-oxo-1-phenylethyl 3-amino-6-(1-(1-(3-(1-((2-(2,6-dioxopiperidin-3-yl)-1,3-dioxoisoindolin-5-yl)glycyl)piperidin-4-yl)propyl)piperidin-4-yl)-1H-pyrazol-4-yl)pyrazine-2-carboxylate], the Kd [1] was 2.5 nM, the “Necroptosis inhibition assay (Rescue %) 1 μM” value ([2]; FADD−/− Jurkat cells) was 62.95% and the “Necroptosis inhibition assay (Rescue %) 10 μM” value ([2]; FADD−/− Jurkat cells) was 37.9%. The “Degradation assay (Degradation %) 1 μM” value [3] was 86.34% and the “Degradation assay (Degradation %) 10 μM” value [3] was 84.54%.
